In the supplement of paper PMC5752671:
Where a name gives a salt, the structure may show the parent alone.

Columns and labels:
Experiment in all cases: area under dose-response curve (cell viability) (AUC (arbitrary, % viability x log concentration)); higher = less sensitive (more viable)
Conditions in all cases: 4 days
KASUMI1 = system: KASUMI1
Outline: (§1)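 Fourteen leukemia cell lines were plated on extracellular-matrix-coated 384-well plates. Drugs were added robotically the next day at eight concentrations spanning 4–5 logs within 10^–12–10^–4 M, tailored per drug, in duplicate. Viability was read with CellTiter-Glo after 4 days. The value is the area under a four-parameter sigmoid fitted to the duplicate-averaged dose-response.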

NB4 = system: NB4
Outline: as §1

KG1 = system: KG1
Outline: as §1

MV4.11 = system: MV4.11
Outline: as §1

MOLM/16 = system: MOLM/16
Outline: as §1

U937 = system: U937
Outline: as §1

SKM1 = system: SKM1
Outline: as §1

PL-21 = system: PL-21
Outline: as §1

OCI-AML3 = system: OCI-AML3
Outline: as §1

EOL-1 = system: EOL-1
Outline: as §1

Compound	area under dose-response curve (KASUMI1)	area under dose-response curve (NB4)	area under dose-response curve (KG1)	area under dose-response curve (MV4.11)	area under dose-response curve (MOLM/16)	area under dose-response curve (U937)	area under dose-response curve (SKM1)	area under dose-response curve (PL-21)	area under dose-response curve (OCI-AML3)	area under dose-response curve (EOL-1)
CC(C)C[C@@H](C(=O)N[C@H](C(=O)OC1CCCC1)c1ccccc1)[C@H](O)C(=O)NO [Tosedostat]	670	538	541	731	452	462	655	520	650	545
Cc1cc(Nc2cc(N3CCN(C)CC3)nc(Sc3ccc(NC(=O)C4CC4)cc3)n2)n[nH]1 [Tozasertib]	356	377	336	91	210	215	421	453	370	64.9
CC1=C(/C=C/C(C)=C/C=C/C(C)=C/C(=O)O)C(C)(C)CCC1 [Tretinoin]	549	601	577	338	574	452	410	523	333	285
CCCC(CCC)C(=O)O [Valproic acid]	696	649	651	720	682	692	688	640	718	691
COc1cc2/c(=N/c3ccc(Br)cc3F)nc[nH]c2cc1OCC1CCN(C)CC1 [Vandetanib]	621	649	626	635	669	730	678	636	697	575
Clc1ccc(Nc2nnc(Cc3ccncc3)c3ccccc23)cc1 [Vatalanib]	590	623	700	666	673	688	653	614	694	488
CC[C@]1(O)C[C@@H]2CN(CCc3c([nH]c4ccccc34)[C@@](C(=O)OC)(c3cc4c(cc3OC)N(C)[C@H]3[C@@](O)(C(=O)OC)[C@H](OC(C)=O)[C@]5(CC)C=CCN6CC[C@]43[C@@H]65)C2)C1 [Vinblastine sulfate]	59.3	34.3	74.8	4.8	23.2	4.36	61.1	9.49	11.7	7.37
CC[C@]1(O)C[C@H]2CN(CCc3c([nH]c4ccccc34)[C@@](C(=O)OC)(c3cc4c(cc3OC)N(C=O)[C@H]3[C@@](O)(C(=O)OC)[C@H](OC(C)=O)[C@]5(CC)C=CCN6CC[C@]43[C@@H]65)C2)C1 [Vincristine sulfate]	78.2	241	246	5.09	35.7	4.64	59.2	7.49	12.2	7.29
CCC1=C[C@@H]2CN(C1)Cc1c([nH]c3ccccc13)[C@@](C(=O)OC)(c1cc3c(cc1OC)N(C)[C@H]1[C@@](O)(C(=O)OC)[C@H](OC(C)=O)[C@]4(CC)C=CCN5CC[C@]31[C@@H]54)C2 [Vinorelbine tartrate]	303	117	373	315	311	136	329	297	301	216
O=C(CCCCCCC(=O)Nc1ccccc1)NO [Vorinostat]	539	530	561	447	463	508	584	496	530	506
COCC[n+]1c2c(n(Cc3cnccn3)c1C)C(=O)c1ccccc1C2=O [YM-155]	160	5.71	340	268	281	125	69.8	311	86.8	203
FC(F)c1nc2ccccc2n1-c1nc(N2CCOCC2)nc(N2CCOCC2)n1 [ZSTK-474]	502	619	623	603	515	541	563	533	584	492
